Values after ≈ are worked out from the molar mass of the structure shown.
Legend:
[1] = Antitumor activity in vivo against the 6C3HED lymphosarcoma, dosed for 8 days at 300 mg/kg; details: Mus musculus, 192 h
[2] = tested on: CCRF-CEM; assay: Concentration required to inhibit growth of CCRF-CEM cells in culture for 72 hr to 50% of control growth; assay type: functional, cell-based; details: Homo sapiens

Row | SMILES | inhibition in vivo at 300 mg/kg [1] | IC50 [2]
1 | Cc1ccc(S(=O)(=O)NC(=O)Nc2ccc(Cl)c(C)c2)cc1 | 85% | 7.3 µg/mL (≈ 21.5 µM)
2 | Cc1ccc(S(=O)(=O)NC(=O)NCc2ccccc2)cc1 | 0% | > 20 µg/mL
3 | Cc1ccc(S(=O)(=O)NC(=O)NC2CCC(O)CC2)cc1 (configuration not stated) | 0% | > 20 µg/mL
4 | Cc1ccc(S(=O)(=O)NC(=O)Nc2ccc(Cl)cn2)cc1 | 43% | > 20 µg/mL
5 | Cc1ccc(S(=O)(=O)NC(=O)Nc2cnccn2)cc1 | 0% | > 20 µg/mL
6 | Cc1ccc(S(=O)(=O)NC(=O)Nc2ccc(Cl)c(Cl)c2)cc1 | 100% | 5.8 µg/mL (≈ 16.1 µM)
7 | Cc1ccc(S(=O)(=O)NC(=O)Nc2cc(Cl)cc(Cl)c2)cc1 | 21% | > 20 µg/mL
8 | Cc1ccc(S(=O)(=O)NC(=O)Nc2ccc3[nH]ncc3c2)cc1 | 0% | > 20 µg/mL
9 | Cc1ccc(S(=O)(=O)NC(=O)Nc2ccc(Cl)cc2)cc1C | 100% | 13.6 µg/mL (≈ 40.1 µM)
10 | Cc1ccc(S(=O)(=O)NC(=O)Nc2c(F)c(F)cc(F)c2F)cc1 | 0% | > 20 µg/mL
11 | O=C(Nc1ccc(Cl)cc1)NS(=O)(=O)c1ccc(Oc2ccccc2)cc1 | 32% | 19.7 µg/mL (≈ 48.9 µM)
12 | Cc1ccc(S(=O)(=O)NC(=O)Nc2ccc3c(c2)CCC3)cc1 | 5% | 15.7 µg/mL (≈ 47.5 µM)
13 | CC(C)c1ccc(S(=O)(=O)NC(=O)Nc2ccc(Cl)cc2)cc1 | 65% | 8.7 µg/mL (≈ 24.7 µM)
14 | Cc1ccc(S(=O)(=O)NC(=O)NC2CCCCC2)cc1 [GLYCYCLAMIDE] | 56% | > 20 µg/mL
15 | COc1ccc(S(=O)(=O)NC(=O)Nc2ccc(Cl)cc2)cc1OC | 43% | > 20 µg/mL
16 | Cc1ccc(S(=O)(=O)NC(=O)Nc2ccc(S(C)(=O)=O)cc2)cc1 | 7% | > 20 µg/mL
17 | Cc1ccc(S(=O)(=O)NC(=O)Nc2ccc(OCc3ccccc3)cc2)cc1 | 0% | > 20 µg/mL
18 | Cc1ccc(S(=O)(=O)NC(=O)Nc2nc[nH]n2)cc1 | 0% | > 20 µg/mL
19 | CCc1cccc(S(=O)(=O)NC(=O)Nc2ccc(Cl)cc2)c1 | 95% | 10.4 µg/mL (≈ 30.7 µM)
20 | Cc1ccc(S(=O)(=O)NC(=O)Nc2cc(C)cc(C)c2)cc1 | 9% | > 20 µg/mL
21 | Cc1ccc(S(=O)(=O)NC(=O)Nc2ccc(CC#N)cc2)cc1 | 10% | > 20 µg/mL

Row | SMILES | inhibition in vivo at 300 mg/kg [1] | IC50 [2]
22 | O=C(Nc1ccc(Cl)cc1)NS(=O)(=O)c1cccc2ccccc12 | 29% | 15.2 µg/mL (≈ 42.1 µM)
23 | CC(=O)c1ccc(S(=O)(=O)NC(=O)Nc2ccc(Cl)cc2)cc1 | 55% | 16.9 µg/mL (≈ 47.9 µM)
24 | Cc1ccc(S(=O)(=O)NC(=O)NC2CCC(C)CC2)cc1 (configuration not stated) | 2% | > 20 µg/mL
25 | CSc1cccc(NC(=O)NS(=O)(=O)c2ccc(C)cc2)c1 | 20% | > 20 µg/mL
26 | Cc1ccc(S(=O)(=O)NC(=O)Oc2ccc(Cl)cc2)cc1 | 43% | > 20 µg/mL
27 | Cc1ccc(S(=O)(=O)NC(=O)Nc2ccc(F)c(F)c2)cc1 | 60% | 12.8 µg/mL (≈ 39.2 µM)
28 | O=C(Nc1ccc(Cl)cc1)NS(=O)(=O)c1ccc2c(c1)CCCC2 | 70% | 14.6 µg/mL (≈ 40 µM)
29 | Cc1ccc(S(=O)(=O)NC(=O)Nc2nncs2)cc1 | 16% | > 20 µg/mL
30 | Cc1ccc(S(=O)(=O)NC(=O)Nc2ccc(N(C)C)cc2)cc1 | 51% | > 20 µg/mL
31 | CCOc1cccc(NC(=O)NS(=O)(=O)c2ccc(C)cc2)c1 | 6% | > 20 µg/mL
32 | Cc1ccc(S(=O)(=O)N(C)C(=O)Nc2ccc(Cl)cc2)cc1 | 17% | > 20 µg/mL
33 | Cc1ccc(S(=O)(=O)NC(=O)Nc2ccc(OCC(F)(F)F)cc2)cc1 | 30% | > 20 µg/mL
34 | Cc1ccc(S(=O)(=O)NC(=O)Nc2ccccn2)cc1 | 2% | > 20 µg/mL
35 | Cc1ccc(S(=O)(=O)NC(=O)Nc2ccc([N+](=O)[O-])cc2)cc1 | 34% | 7.4 µg/mL (≈ 22.1 µM)
36 | Cc1ccc(S(=O)(=O)NC(=O)Nc2ccc3c(c2)OCO3)cc1 | 54% | > 20 µg/mL
37 | O=C(Nc1ccc(Cl)cc1)NS(=O)(=O)c1ccc([N+](=O)[O-])cc1 | 70% | 12.1 µg/mL (≈ 34 µM)
38 | CSc1ccc(NC(=O)NS(=O)(=O)c2ccc(C)cc2)cc1 | 17% | > 20 µg/mL
39 | O=C(Nc1ccc(Cl)cc1)NS(=O)(=O)c1ccc2c(c1)CCO2 | 94% | 16.1 µg/mL (≈ 45.6 µM)
40 | CCCCCCCCc1ccc(S(=O)(=O)NC(=O)Nc2ccc(Cl)cc2)cc1 | 9% | 9 µg/mL (≈ 21.3 µM)
41 | Cc1ccc(S(=O)(=O)NC(=O)Nc2ccc(S(N)(=O)=O)cc2)cc1 | 27% | –
42 | Cc1ccc(S(=O)(=O)NC(=O)Nc2ccc(OC(F)F)cc2)cc1 | 15% | –
